# Source: patent US10597388B2, “Pyridazinone herbicides” (FMC CORPORATION, priority 2014, dated 2020)
# Read-outs that look alike come from different tables or passages of the source.
# Experiments:
# Assay type in all cases: in vivo
# [1] = system: wheat (Triticum aestivum); test: Test A greenhouse herbicide test, pre- and postemergence; conditions: Postemergence
# From the text: (§1) Seeds of plant species selected from barnyardgrass (Echinochloa crus-galli), kochia (Kochia scoparia), ragweed (common ragweed, Ambrosia elatior), ryegrass, Italian (Italian ryegrass, Lolium multiflorum), crabgrass, large (large crabgrass, Digitaria sanguinalis), foxtail, giant (giant foxtail, Setaria faberii), momingglory (Ipomoea spp.), pigweed (Amaranthus retroflexus), velvetleaf (Abutilon theophrasti), wheat (Triticum aestivum), and corn (Zea mays) were planted into a blend of loam soil and sand and treated preemergence with a directed soil spray using test chemicals formulated in a non-phytotoxic solvent mixture which included a surfactant.
# (§2) At the same time, plants selected from these crop and weed species and also blackgrass (Alopecurus myosuroides), and galium (catchweed bedstraw, Galium aparine) were planted in pots containing the same blend of loam soil and sand and treated with postemergence applications of test chemicals formulated in the same manner. Plants ranged in height from 2 to 10 cm and were in the one- to two-leaf stage for the postemergence treatment. Treated plants and untreated controls were maintained in a greenhouse for approximately 10 d, after which time all treated plants were compared to untreated controls and visually evaluated for injury. Plant response ratings, summarized in Table A, are based on a 0 to 100 scale where 0 is no effect and 100 is complete control. A dash (-) response means no test result.
# [2] = system: pigweed (Amaranthus retroflexus); test: as above; conditions: for pest or weed control at 1000 g/ha: Amaranthus retroflexus, 240 h, 1000 g ai/ha
# From the text: as §1, §2
# [3] = system: ragweed (common ragweed, Ambrosia elatior); test: as above; conditions: for pest or weed control at 1000 g/ha: Ambrosia artemisiifolia, 240 h, 1000 g ai/ha
# From the text: as §1, §2
# [4] = system: ryegrass, Italian (Italian ryegrass, Lolium multiflorum); test: as above; conditions: for pest or weed control at 1000 g/ha: Lolium multiflorum, 240 h, 1000 g ai/ha
# From the text: as §1, §2
# [5] = system: kochia (Kochia scoparia); test: as above; conditions: for pest or weed control at 1000 g/ha: Bassia scoparia, 240 h, 1000 g ai/ha
# From the text: as §1, §2
# [6] = system: corn (Zea mays); test: as above; conditions: Postemergence
# From the text: as §1, §2
# [7] = system: barnyardgrass (Echinochloa crus-galli); test: as above; conditions: for pest or weed control at 1000 g/ha: Echinochloa crus-galli, 240 h, 1000 g ai/ha
# From the text: as §1, §2
# [8] = system: foxtail, giant (giant foxtail, Setaria faberii); test: as above; conditions: for pest or weed control at 1000 g/ha: Setaria faberi, 240 h, 1000 g ai/ha
# From the text: as §1, §2
# [9] = system: galium (catchweed bedstraw, Galium aparine); test: Test A greenhouse herbicide test, postemergence
# Procedure, shortened: (§3)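 Seedlings in a loam soil and sand mix received formulated compound postemergence at the one- to two-leaf stage. Greenhouse holding lasts approximately 10 d, then injury is scored visually relative to untreated plants, 0 meaning no effect and 100 complete control.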
# [10] = system: blackgrass (Alopecurus myosuroides); test: Test A greenhouse herbicide test, postemergence
# Procedure, shortened: as §3
# [11] = system: rice (Oryza sativa); test: Test B flooded paddy test; conditions: 250 g ai/ha, Flood, visual rating on scale of 0 to 100 where 0 is no effect and 100 is complete control, 13 to 15 d after treatment
# Procedure, shortened: (§4)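 Ratings use a 0-100 visual scale, where 100 is complete control, and compare treated plants with controls after 13 to 15 d of greenhouse growth. Compound went straight into paddy water kept 3 cm over the soil surface, applied to seedlings at the 2-leaf stage.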
# [12] = system: ducksalad (Heteranthera limosa); test: Test B flooded paddy test; conditions: 250 g ai/ha, Flood, visual rating on scale of 0 to 100 where 0 is no effect and 100 is complete control, 13 to 15 d after treatment
# Procedure, shortened: as §4
# [13] = system: sedge, umbrella (small-flower umbrella sedge, Cyperus difformis); test: Test B flooded paddy test; conditions: 250 g ai/ha, Flood, visual rating on scale of 0 to 100 where 0 is no effect and 100 is complete control, 13 to 15 d after treatment
# Procedure, shortened: as §4
# [14] = system: barnyardgrass (Echinochloa crus-galli); test: Test B flooded paddy test; conditions: 250 g ai/ha, Flood, visual rating on scale of 0 to 100 where 0 is no effect and 100 is complete control, 13 to 15 d after treatment
# Procedure, shortened: as §4
# [15] = 125 g ai/ha, 0 to 100 scale, 0 no effect, 100 complete control
# [16] = 500 g ai/ha, visual rating after approx. 10 d, 0 to 100 scale (0 no effect, 100 complete control)
# [17] = Postemergence, 125 g ai/ha, 0 to 100 scale, 0 no effect, 100 complete control
# [18] = Postemergence, 500 g ai/ha, visual rating after approx. 10 d, 0 to 100 scale (0 no effect, 100 complete control)
# [19] = Preemergence, 125 g ai/ha, visual injury rating, 0 to 100 scale (0 no effect, 100 complete control), approx. 10 d
# [20] = Preemergence, 500 g ai/ha, 0 to 100 scale where 0 is no effect and 100 is complete control
structure (smiles),measurement,setting,value
COC(=O)Cn1nc(C)c(O)c(-c2cccc3ccccc23)c1=O [Compound 172],"Plant response rating, Wheat",[1]; [15],20
same,"Plant response rating, Wheat",[1]; [16],20
same,"Plant response rating, Pigweed",[2]; [17],0
same,"Plant response rating, Pigweed",[2]; [18],30
same,"Plant response rating, Pigweed",[2]; [19],0
same,"Plant response rating, Pigweed",[2]; [20],0
same,"Plant response rating, Ragweed",[3]; [17],0
same,"Plant response rating, Ragweed",[3]; [18],0
same,"Plant response rating, Ragweed",[3]; [19],0
same,"Plant response rating, Ragweed",[3]; [20],0
same,"Plant response rating, Ryegrass, Italian",[4]; [17],20
same,"Plant response rating, Ryegrass, Italian",[4]; [18],60
same,"Plant response rating, Ryegrass, Italian",[4]; [19],0
same,"Plant response rating, Ryegrass, Italian",[4]; [20],20
same,"Plant response rating, Kochia",[5]; [17],0
same,"Plant response rating, Kochia",[5]; [18],20
same,"Plant response rating, Kochia",[5]; [19],0
same,"Plant response rating, Kochia",[5]; [20],0
same,"Plant response rating, Corn",[6]; [15],0
same,"Plant response rating, Corn",[6]; [16],0
same,"Plant response rating, Barnyardgrass",[7]; [17],40
same,"Plant response rating, Barnyardgrass",[7]; [18],70
same,"Plant response rating, Barnyardgrass",[7]; [19],20
same,"Plant response rating, Barnyardgrass",[7]; [20],50
same,"Plant response rating, Foxtail, Giant",[8]; [17],40
same,"Plant response rating, Foxtail, Giant",[8]; [18],80
same,"Plant response rating, Foxtail, Giant",[8]; [19],60
same,"Plant response rating, Foxtail, Giant",[8]; [20],90
same,"Plant response rating, Galium",[9]; [15],20
same,"Plant response rating, Galium",[9]; [16],40
same,"Plant response rating, Blackgrass",[10]; [15],20
same,"Plant response rating, Blackgrass",[10]; [16],30
same,"Plant response rating, Rice",[11],0
same,"Plant response rating, Ducksalad",[12],0
same,"Plant response rating, Sedge, Umbrella",[13],0
same,"Plant response rating, Barnyardgrass",[14],0
"CCc1ccc2oc(C)c(-c3c(O)c(C)nn(C)c3=O)c2c1 [Compound 13, 4-(5-ethyl-2-methyl-3-benzofuranyl)-5-hydroxy-2,6-dimethyl-3(2H)-pyridazinone]",plant injury at 1000 g/ha,"[1]; Triticum aestivum, post-emergence, 240 h, 1000 g ai/ha, 0 to 100 scale, 0 is no effect, 100 is complete control, read-out: Wheat plant response rating",20%
same,pest or weed control at 1000 g/ha,"[2]; post-emergence, Postemergence, 0 to 100 scale, 0 is no effect, 100 is complete control, read-out: Pigweed plant response rating",20%
same,pest or weed control at 1000 g/ha,"[2]; pre-emergence, Preemergence, 0 to 100 scale, 0 no effect, 100 complete control, read-out: Plant response rating, Pigweed",0%
same,pest or weed control at 1000 g/ha,"[3]; post-emergence, Postemergence, 0 to 100 scale, 0 is no effect, 100 is complete control, read-out: Ragweed plant response rating",30%
same,pest or weed control at 1000 g/ha,"[3]; pre-emergence, Preemergence, 0 to 100 scale, 0 no effect, 100 complete control, read-out: Plant response rating, Ragweed",0%
same,pest or weed control at 1000 g/ha,"[4]; post-emergence, Postemergence, 0 to 100 scale, 0 is no effect, 100 is complete control, read-out: Ryegrass, Italian plant response rating",70%
same,pest or weed control at 1000 g/ha,"[4]; pre-emergence, Preemergence, 0 to 100 scale, 0 no effect, 100 complete control, read-out: Plant response rating, Ryegrass, Italian",60%
same,pest or weed control at 1000 g/ha,"[5]; post-emergence, Postemergence, 0 to 100 scale, 0 is no effect, 100 is complete control, read-out: Kochia plant response rating",30%
same,pest or weed control at 1000 g/ha,"[5]; pre-emergence, Preemergence, 0 to 100 scale, 0 no effect, 100 complete control, read-out: Plant response rating, Kochia",20%
same,plant injury at 1000 g/ha,"[6]; Zea mays, post-emergence, 240 h, 1000 g ai/ha, 0 to 100 scale, 0 is no effect, 100 is complete control, read-out: Corn plant response rating",20%
same,pest or weed control at 1000 g/ha,"[7]; post-emergence, Postemergence, 0 to 100 scale, 0 is no effect, 100 is complete control, read-out: Barnyardgrass plant response rating",80%
same,pest or weed control at 1000 g/ha,"[7]; pre-emergence, Preemergence, 0 to 100 scale, 0 no effect, 100 complete control, read-out: Plant response rating, Barnyardgrass",60%
same,pest or weed control at 1000 g/ha,"[8]; post-emergence, Postemergence, 0 to 100 scale, 0 is no effect, 100 is complete control, read-out: Foxtail, Giant plant response rating",80%
same,pest or weed control at 1000 g/ha,"[8]; pre-emergence, Preemergence, 0 to 100 scale, 0 no effect, 100 complete control, read-out: Plant response rating, Foxtail, Giant",50%
same,pest or weed control at 1000 g/ha,"[9]; Galium, post-emergence, 240 h, 1000 g ai/ha, 0 to 100 scale, 0 is no effect, 100 is complete control, read-out: Galium plant response rating",70%
same,pest or weed control at 1000 g/ha,"[10]; Alopecurus myosuroides, post-emergence, 240 h, 1000 g ai/ha, 0 to 100 scale, 0 is no effect, 100 is complete control, read-out: Blackgrass plant response rating",30%
same,plant injury at 250 g/ha,"[11]; Oryza sativa, 360 h, read-out: Plant response rating, Rice",0%
same,pest or weed control at 250 g/ha,"[12]; Heteranthera limosa, 360 h, read-out: Plant response rating, Ducksalad",0%
same,pest or weed control at 250 g/ha,"[13]; Cyperus difformis, 360 h, read-out: Plant response rating, Sedge, Umbrella",0%
same,pest or weed control at 250 g/ha,"[14]; Echinochloa crus-galli, 360 h, read-out: Plant response rating, Barnyardgrass",0%
Cc1ccc2ccccc2c1-c1c(O)c([N+](=O)[O-])nn(C)c1=O [Compound 177],"Plant response rating, Wheat",[1]; [15],0
same,"Plant response rating, Wheat",[1]; [16],0
same,"Plant response rating, Pigweed",[2]; [17],0
same,"Plant response rating, Pigweed",[2]; [18],0
same,"Plant response rating, Pigweed",[2]; [19],0
same,"Plant response rating, Pigweed",[2]; [20],0
same,"Plant response rating, Ragweed",[3]; [17],0
same,"Plant response rating, Ragweed",[3]; [18],0
same,"Plant response rating, Ragweed",[3]; [19],0
same,"Plant response rating, Ragweed",[3]; [20],0
same,"Plant response rating, Ryegrass, Italian",[4]; [17],0
same,"Plant response rating, Ryegrass, Italian",[4]; [18],0
same,"Plant response rating, Ryegrass, Italian",[4]; [19],0
same,"Plant response rating, Ryegrass, Italian",[4]; [20],0
same,"Plant response rating, Kochia",[5]; [17],0
same,"Plant response rating, Kochia",[5]; [18],0
same,"Plant response rating, Kochia",[5]; [19],0
same,"Plant response rating, Kochia",[5]; [20],0
same,"Plant response rating, Corn",[6]; [15],0
same,"Plant response rating, Corn",[6]; [16],0
same,"Plant response rating, Barnyardgrass",[7]; [17],0
same,"Plant response rating, Barnyardgrass",[7]; [18],0
same,"Plant response rating, Barnyardgrass",[7]; [19],0
same,"Plant response rating, Barnyardgrass",[7]; [20],0
same,"Plant response rating, Foxtail, Giant",[8]; [17],0
same,"Plant response rating, Foxtail, Giant",[8]; [18],0
same,"Plant response rating, Foxtail, Giant",[8]; [19],0
same,"Plant response rating, Foxtail, Giant",[8]; [20],0
same,"Plant response rating, Galium",[9]; [15],0
same,"Plant response rating, Galium",[9]; [16],0
same,"Plant response rating, Blackgrass",[10]; [15],0
same,"Plant response rating, Blackgrass",[10]; [16],0
same,"Plant response rating, Rice",[11],0
same,"Plant response rating, Ducksalad",[12],0
same,"Plant response rating, Sedge, Umbrella",[13],0
same,"Plant response rating, Barnyardgrass",[14],0
